According to patent publication US20240122905A1, “PHARMACEUTICAL COMPOSITION” (MedinCell S.A., priority 2020, published 2024):

Assay: PK1: absolute/subcutaneous bioavailability study of Tacrolimus solution (IV and SC)
Format: in vivo, female Göttingen minipig
Details: for AUClast/D1 / AUC∞/D1 / Cmax/D1: dose-normalized by actual dose per kg
Protocol: PK1: A 2-Month Pharmacokinetic Study of Different Sustained-Release Formulations of Tacrolimus after Subcutaneous Administration and Subcutaneous Bioavailability Study of Tacrolimus in Female Göttingen Minipig
Evaluation of the Absolute Bioavailability of Tacrolimus
The dose volume for each animal was 12.5 mL corresponding to a unique dose of 2.5 mg/animal. Solution was administered: • intravenously into the ear vein using 20 mL polypropylene syringe and 23 G butterfly needle. • subcutaneously in a skin fold caudal to the axillar region/shoulder using 20 mL polypropylene syringe and 21 G needle.
Blood samples were collected into EDTA tubes at predose and at different time points: • Intravenous dosing: 5 min (0.083 h), 15 min (0.25 h), 30 min (0.5 h), and 1, 2, 6, 24, 48, 72 and 96 h after end of dosing. • Subcutaneous dosing: 30 min (0.5 h), and 1, 2, 4, 6, 10, 24, 48, 72 and 96 h after end of dosing.
Whole blood samples were analyzed to determine the concentration of the test item using a qualified analytical procedure. 2-Month Pharmacokinetic Study of Sustain-Release Formulations

[1] = Tacrolimus solution 2.5 mg/animal IV
[2] = Tacrolimus solution 2.5 mg/animal SC
[3] = female, Göttingen, minipig, Tacrolimus solution 2.5 mg/animal IV, whole blood
[4] = female, Göttingen, minipig, Tacrolimus solution 2.5 mg/animal SC, whole blood

AUClast/D1 [1]: 17900 ± 1620 kg·ng·h/mL/mg | AUC∞/D1 [1]: 19700 ± 1750 kg·ng·h/mL/mg | Clast (Tacrolimus solution 2.5 mg/animal IV, whole blood): 4.22 ± 2.08 ng/mL | tlast (Tacrolimus solution 2.5 mg/animal IV, whole blood, median (range)): 95.7 (95.7-96.1)^$ h | AUClast/D1 [2]: 17100 ± 1090 kg·ng·h/mL/mg | AUC∞/D1 [2]: 18100 ± 1150 kg·ng·h/mL/mg | Cmax/D1 [2]: 779 ± 30.8 kg·ng/mL/mg | Cmax/D1 (Tacrolimus solution 2.5 mg/animal SC, listed as immediate release compound): 779 kg·ng/mL/mg | Clast (Tacrolimus solution 2.5 mg/animal SC, whole blood): 2.89 ± 0.759 ng/mL | tlast (Tacrolimus solution 2.5 mg/animal SC, whole blood, median): 96 h | bioavailability (female, Göttingen, minipig, whole blood, subcutaneous, Tacrolimus solution 2.5 mg/animal SC vs IV): 92.4% | AUC(0-inf) [3]: 2040 ± 258 ng·h/mL | AUC(0-t) [3]: 1850 ± 224 ng·h/mL | half-life [3]: 31.5 ± 1.62 h | AUC(0-inf) [4]: 1870 ± 189 ng·h/mL | AUC(0-t) [4]: 1760 ± 169 ng·h/mL | Cmax [4]: 80.2 ± 2.63 ng/mL | half-life [4]: 25.7 ± 2.25 h | Tmax (female, Göttingen, minipig, Tacrolimus solution 2.5 mg/animal SC, whole blood, median): 4 h
Structure (SMILES): C=CC[C@@H]1/C=C(\C)C[C@H](C)C[C@H](OC)[C@H]2O[C@@](O)(C(=O)C(=O)N3CCCC[C@H]3C(=O)OC(/C(C)=C/[C@@H]3CC[C@@H](O)[C@H](OC)C3)[C@H](C)[C@@H](O)CC1=O)[C@H](C)C[C@@H]2OC (stereo partly shown) [Tacrolimus]
